This note sets out measurements from patent US12649754B2, “Prodrugs of 2-(3,5-dichloro-1-methyl-indazol-4-yl)-1-[(1S,3R)-3-(hydroxymethyl)-5-(1-hydroxy-1-methyl-ethyl)-1-methyl-3,4-dihydro-1H-isoquinolin-2-yl]ethanone” (UCB Biopharma SRL, priority 2020, dated 2026).

As a reminder, the solubility is the concentration that dissolves in the medium under given conditions.

Data set [1] in a line: In vivo bioavailability of oral suspensions of prodrugs, plasma LC/MS. To be noted: male Sprague-Dawley rats, single oral dose of suspension corresponding to 3 mg/kg of compound (I), plasma 0.12 h to 8 h. How it is done:
The formulation vehicle used in the following suspension is a mixture of 1% (w/v) methylcellulose (400 cps), 0.1% (weight/volume) TWEEN® 80, 0.1% (w/v) Antifoam 1510 US in 25 mM phosphate buffer pH 3.0 in water. […]
The solution is homogenized by sonication during 1 minute, repeated 3 times.
Three male Sprague-Dawley rats were administered the respective suspensions of (II-A), (II-B) and (II-C), as described in paragraph 7.1 above, at a single oral dose corresponding to 3 mg/kg of compound of formula (I).
Plasma samples were collected 0.12 h, 0.25 h, 0.5 h, 1 h, 2 h, 4 h and 8 h following dosing.
Plasma concentrations of compound (I) and respective compounds (II-A), (II-B) and (II-C) were quantified by LC/MS (liquid chromatography/mass spectrometry).

Data set [2] can be described thus: Solubility by shake flask method (24 h, HPLC). Type of data set: physicochemical. To be noted: n=3 mean; for solubility at 24 h: thermodynamic from solid, read-out: Solubility Measurements (mean value) (24 h). How it is done: The solubility of compounds of formula (Ia) obtained according to Example 2.12. and compounds of formula (II-A), (II-Ax) and (II-B) obtained respectively according to Examples 3.2. and 4.2., was determined in different media while using the shake flask method. An excess of solids, for (II-Ax) and (II-B) equivalent to a concentration of compound of formula (I) of 5 mg/mL, and for (II-A) equivalent to a concentration of compound of formula (I) of 1 mg/mL was suspended in 5 mL of buffer/biorelevant media as specifically described in Table 1 and incubated in a sealed glass vial (10 mL) for 24 h at room temperature or 37° C. (as indicated below) in a climatic chamber equipped with a rotary mixer. The 24 h time point was assumed to have reached solubility, at which time the suspension was filtered through a 0.45-μm ultra free filter (Merck Millipore) and the drug content was determined by HPLC. The solubility of compounds (Ia), (II-A), (II-Ax) and (II-B) was determined in triplicate (n=3) and mean value calculated.
The media tested are respectively water, phosphate buffer, FasSGF, FASSIF-V2 and FeSSIF-V2. FasSG is fasted condition gastric fluid. FasSGF is prepared at pH 1.6 and contains 0.08 mM Taurocholate, 0.02 mM phospholipids, 34 mM sodium and 59 mM chloride. FaSSIF-V2 and FeSSIF-V2 are Fasted and Fed State Biorelevant Media, respectively. FaSSIF-V2 is prepared at pH 6.5 and contains 3 mM Taurocholate, 0.2 mM Phospholipids, 106 mM Sodium, 69 mM Chloride and 19 mM Maleic acid. FeSSIF-V2 is prepared at pH 5.8 and contains 10 mM Taurocholate, 2 mM Phospholipids, 0.8 mM Oleate, 5 mM Glycerol monoleate, 218 mM Sodium, 125 mM Chloride and 55 mM Maleic acid.

Where [3] appears, read: phosphate buffer, pH 4, aqueous buffer, Phosphate buffer (50 mM), pH 4.0, RT.
The mark [4] stands for this setting: water, pH 7, water, Water, pH 7.0, RT.
Setting [5] is: phosphate buffer, pH 6.5, aqueous buffer, Phosphate buffer (50 mM), pH 6.5, RT.
Setting [6] is: FaSSIF-V2, 37 °C, pH 6.5, fassif, FaSSIF-V2, pH 6.5, 37° C.
Setting [7] is: FasSGF, 37 °C, pH 1.6, fassgf or other biorelevant, FasSGF, pH 1.6, 37° C.
Where [8] appears, read: FeSSIF-V2, 37 °C, pH 5.8, fessif, FeSSIF-V2, pH 5.8, 37° C.

SMILES strings stand for the structures. Values after ≈ are worked out from the molar mass of the structure shown. Like-named read-outs stand apart in the source and are kept apart here.

As to `C[C@H]1c2cccc(C(C)(C)O)c2C[C@H](COP(=O)(O)O)N1C(=O)Cc1c(Cl)ccc2c1c(Cl)nn2C` [(II-A), [(1S,3R)-2-[2-(3,5-dichloro-1-methyl-indazol-4-yl)acetyl]-5-(1-hydroxy-1-methyl-ethyl)-1-methyl-3,4-dihydro-1H-isoquinolin-3-yl]methyl dihydrogen phosphate], the “cleavage of prodrug into compound of formula (I) in plasma” value (shortened to “cleavage”) in data set [1] is “completely cleaved”. In data set [2] (FaSSIF-V2, pH 6.5, 37° C.), the “Solubility Measurements (mean value) (24 h)” value is approximately 1100 µg/mL. Moreover, the solubility at 24 h in data set [2] (setting [3]) and in data set [2] (setting [4]) was approximately 1000 µg/mL each time.
Regarding `C[C@H]1c2cccc(C(C)(C)O)c2C[C@H](COP(=O)(O)O)N1C(=O)Cc1c(Cl)ccc2c1c(Cl)nn2C` [(II-Ax), [(1S,3R)-2-[2-(3,5-dichloro-1-methyl-indazol-4-yl)acetyl]-5-(1-hydroxy-1-methyl-ethyl)-1-methyl-3,4-dihydro-1H-isoquinolin-3-yl]methyl dihydrogen phosphate], the “Solubility Measurements (mean value) (24 h)” value in data set [2] (FaSSIF-V2, pH 6.5, 37° C.) is more than 5000 µg/mL; in data set [2] (FeSSIF-V2, pH 5.8, 37° C.), more than 5000 µg/mL. The solubility at 24 h in data set [2] (setting [5]) was more than 5000 µg/mL.
Take `CC(C)[C@H](N)C(=O)OC[C@H]1Cc2c(cccc2C(C)(C)O)[C@H](C)N1C(=O)Cc1c(Cl)ccc2c1c(Cl)nn2C` [(II-B), [(1S,3R)-2-[2-(3,5-dichloro-1-methyl-indazol-4-yl)acetyl]-5-(1-hydroxy-1-methyl-ethyl)-1-methyl-3,4-dihydro-1H-isoquinolin-3-yl]methyl (2S)-2-amino-3-methyl-butanoate]: the “cleavage” value in data set [1] is reported as “partially cleaved”. The solubility at 24 h in data set [2] (setting [6]) is approximately 30 µg/mL (≈ 52.1 µM); in data set [2] (setting [7]) it was approximately 4800 µg/mL (≈ 8340 µM); in data set [2] (setting [8]), approximately 900 µg/mL (≈ 1560 µM); in data set [2] (setting [3]), approximately 850 µg/mL (≈ 1480 µM); in data set [2] (setting [5]), approximately 70 µg/mL (≈ 122 µM); in data set [2] (setting [4]) it was approximately 40 µg/mL (≈ 69.5 µM).
Regarding `CC(C)C[C@H](N)C(=O)OC[C@H]1Cc2c(cccc2C(C)(C)O)[C@H](C)N1C(=O)Cc1c(Cl)ccc2c1c(Cl)nn2C` [(II-C), [(1S,3R)-2-[2-(3,5-dichloro-1-methyl-indazol-4-yl)acetyl]-5-(1-hydroxy-1-methyl-ethyl)-1-methyl-3,4-dihydro-1H-isoquinolin-3-yl]methyl (2S)-2-amino-4-methyl-pentanoate], the “cleavage” value in data set [1] was “completely cleaved”.
Turning to `C[C@H]1c2cccc(C(C)(C)O)c2C[C@H](CO)N1C(=O)Cc1c(Cl)ccc2c1c(Cl)nn2C` [(Ia), 2-(3,5-dichloro-1-methyl-indazol-4-yl)-1-[(1S,3R)-3-(hydroxymethyl)-5-(1-hydroxy-1-methyl-ethyl)-1-methyl-3,4-dihydro-1H-isoquinolin-2-yl]ethanone], the solubility at 24 h was approximately 1.5 µg/mL (≈ 3.15 µM) in data set [2] (setting [6]); less than 1 µg/mL in data set [2] (setting [7]); approximately 4 µg/mL (≈ 8.4 µM) in data set [2] (setting [8]); less than 1 µg/mL in data set [2] (setting [3]); less than 1 µg/mL in data set [2] (setting [5]); less than 1 µg/mL in data set [2] (setting [4]).
